The term IC50 denotes the midpoint of a concentration-inhibition curve.

The structures appear in SMILES notation.

What all share (assay type): cell-based
For series [1], the target named is T1, N-formyl peptide receptor 2 (Homo sapiens) (UniProt P25090).
T1 sequence (whole entry): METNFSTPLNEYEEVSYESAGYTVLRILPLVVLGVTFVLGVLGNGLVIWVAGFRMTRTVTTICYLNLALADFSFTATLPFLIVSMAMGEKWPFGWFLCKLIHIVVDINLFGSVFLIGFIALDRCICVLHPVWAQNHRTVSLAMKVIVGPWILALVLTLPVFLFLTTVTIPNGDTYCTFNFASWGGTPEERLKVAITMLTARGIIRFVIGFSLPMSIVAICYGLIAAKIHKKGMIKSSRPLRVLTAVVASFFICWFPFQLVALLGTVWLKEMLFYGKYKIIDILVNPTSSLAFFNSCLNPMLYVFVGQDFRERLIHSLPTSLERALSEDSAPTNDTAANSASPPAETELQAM
As to the kind of experiment: Agonist activity at ALX/FPR2 in human THP1 cells harboring NF-kB-Luc assessed as inhibition of LPS-induced NFkB signalling activation by measuring NF-kB activation level at 10^-11 M pretreated for 30 mins followed by LPS stimulation for 24 hrs by luciferase reporter gene assay. More on the design: scale not given: the % may be the effect or the level left. A general note: In a reporter assay the amount or activity of a reporter protein is the signal.

For series [2], the target named is T2, N-formyl peptide receptor 2 (Homo sapiens, UniProt P25090).
T2 sequence (P25090 whole entry): T1 sequence (whole entry)
As to the kind of experiment: Agonist activity at ALX/FPR2 in human THP1 cells harboring NF-kB-Luc assessed as inhibition of LPS-induced NFkB signalling activation by measuring reduction in IFNgamma secretion pretreated for 30 mins followed by LPS stimulation for 24 hrs by electrochemiluminescence assay. The settings on record: read-out: IC50.

Series [3] deals with T1, N-formyl peptide receptor 2 (Homo sapiens). The experiment in a line: Agonist activity at ALX/FPR2 in human THP1 cells harboring NF-kB-Luc assessed as inhibition of LPS-induced NFkB signalling activation by measuring IL-12p70 secretion at 10^-9 M pretreated for 30 mins followed by LPS stimulation for 24 hrs by electrochemiluminescence assay. More on the design: scale not given: the % may be the effect or the level left.

For series [4] the target is unchanged. As to the kind of experiment: Agonist activity at ALX/FPR2 in human THP1 cells harboring NF-kB-Luc assessed as inhibition of LPS-induced NFkB signalling activation by measuring IL-12p70 secretion at 10^-7 M pretreated for 30 mins followed by LPS stimulation for 24 hrs by electrochemiluminescence assay. More on the design: scale not given: the % may be the effect or the level left.

A short description of series [5]: Cytotoxicity against mouse J774.1 cells assessed as cell viability by MTS assay relative to control. The settings on record: read-out: Activity. (Formazan colour is commonly taken as a measure of viable cells.)
For series [6], the target named is T2, N-formyl peptide receptor 2. As to the kind of experiment: Agonist activity at ALX/FPR2 in human THP1 cells harboring NF-kB-Luc assessed as inhibition of LPS-induced NFkB signalling activation by measuring reduction in TNFalpha secretion pretreated for 30 mins followed by LPS stimulation for 24 hrs by electrochemiluminescence assay. The settings on record: read-out: IC50.

In series [7] the target is T1, N-formyl peptide receptor 2 (Homo sapiens). The experiment in a line: Agonist activity at ALX/FPR2 in human THP1 cells harboring NF-kB-Luc assessed as inhibition of LPS-induced NFkB signalling activation by measuring NF-kB activation level at 10^-8 M pretreated for 30 mins followed by LPS stimulation for 24 hrs by luciferase reporter gene assay. More on the design: scale not given: the % may be the effect or the level left.

Series [8] has the same target. As to the kind of experiment: Agonist activity at ALX/FPR2 in human THP1 cells harboring NF-kB-Luc assessed as inhibition of LPS-induced NFkB signalling activation by measuring IFNgamma secretion at 10^-9 M pretreated for 30 mins followed by LPS stimulation for 24 hrs by electrochemiluminescence assay. More on the design: scale not given: the % may be the effect or the level left.

Series [9] shares this target. As to the kind of experiment: Agonist activity at ALX/FPR2 in human THP1 cells harboring NF-kB-Luc assessed as inhibition of LPS-induced NFkB signalling activation by measuring IL-12p70 secretion at 10^-11 M pretreated for 30 mins followed by LPS stimulation for 24 hrs by electrochemiluminescence assay. More on the design: scale not given: the % may be the effect or the level left.

Series [10] addresses T2, N-formyl peptide receptor 2. As to the kind of experiment: Agonist activity at ALX/FPR2 in human THP1 cells harboring NF-kB-Luc assessed as inhibition of LPS-induced NFkB signalling activation pretreated for 30 mins followed by LPS stimulation for 24 hrs by luciferase reporter gene assay.
The target is the same in series [11]. The experiment in a line: Agonist activity at ALX/FPR2 in human THP1 cells harboring NF-kB-Luc assessed as inhibition of LPS-induced NFkB signalling activation by measuring reduction in IL-1beta secretion pretreated for 30 mins followed by LPS stimulation for 24 hrs by electrochemiluminescence assay. The settings on record: read-out: IC50.
Series [12] addresses T1, N-formyl peptide receptor 2 (Homo sapiens). As to the kind of experiment: Agonist activity at ALX/FPR2 in human THP1 cells harboring NF-kB-Luc assessed as inhibition of LPS-induced NFkB signalling activation by measuring NF-kB activation level at 10^-12 M pretreated for 30 mins followed by LPS stimulation for 24 hrs by luciferase reporter gene assay. More on the design: scale not given: the % may be the effect or the level left.

Series [13] has the same target. As to the kind of experiment: Agonist activity at ALX/FPR2 in human THP1 cells harboring NF-kB-Luc assessed as inhibition of LPS-induced NFkB signalling activation by measuring IL-6 secretion at 10^-11 M pretreated for 30 mins followed by LPS stimulation for 24 hrs by electrochemiluminescence assay. More on the design: scale not given: the % may be the effect or the level left.

Series [14] has as its target T2, N-formyl peptide receptor 2. As to the kind of experiment: Agonist activity at ALX/FPR2 in human THP1 cells harboring NF-kB-Luc assessed as inhibition of LPS-induced NFkB signalling activation by measuring reduction in IL-6 secretion pretreated for 30 mins followed by LPS stimulation for 24 hrs by electrochemiluminescence assay. Particulars: read-out: IC50.
Series [15] has as its target T1, N-formyl peptide receptor 2 (Homo sapiens). As to the kind of experiment: Agonist activity at ALX/FPR2 in human THP1 cells harboring NF-kB-Luc assessed as inhibition of LPS-induced NFkB signalling activation by measuring NF-kB activation level at 10^-9 M pretreated for 30 mins followed by LPS stimulation for 24 hrs by luciferase reporter gene assay. More on the design: scale not given: the % may be the effect or the level left.

The target is the same in series [16]. As to the kind of experiment: Agonist activity at ALX/FPR2 in human THP1 cells harboring NF-kB-Luc assessed as inhibition of LPS-induced NFkB signalling activation by measuring IFNgamma secretion at 10^-7 M pretreated for 30 mins followed by LPS stimulation for 24 hrs by electrochemiluminescence assay. More on the design: scale not given: the % may be the effect or the level left.

Series [17] shares this target. As to the kind of experiment: Agonist activity at ALX/FPR2 in human THP1 cells harboring NF-kB-Luc assessed as inhibition of LPS-induced NFkB signalling activation by measuring NF-kB activation level at 10^-6 M pretreated for 30 mins followed by LPS stimulation for 24 hrs by luciferase reporter gene assay. More on the design: scale not given: the % may be the effect or the level left.

The species entered for a further series is Homo sapiens. The experiment in a line: Activation of Luc-fused NFkB (unknown origin) expressed in non-stimulated human THP1 cells assessed as relative luminescence unit at 10^-9 M after 24 hrs by luciferase reporter gene assay (reference value: 100%).
In series [18] the target is T1, N-formyl peptide receptor 2 (Homo sapiens). The experiment in a line: Agonist activity at ALX/FPR2 in human THP1 cells harboring NF-kB-Luc assessed as inhibition of LPS-induced NFkB signalling activation by measuring IL-1beta secretion at 10^-9 M pretreated for 30 mins followed by LPS stimulation for 24 hrs by electrochemiluminescence assay. More on the design: scale not given: the % may be the effect or the level left.

For series [19] the target is unchanged. The experiment in a line: Agonist activity at ALX/FPR2 in human THP1 cells harboring NF-kB-Luc assessed as inhibition of LPS-induced NFkB signalling activation by measuring TNFalpha secretion at 10^-11 M pretreated for 30 mins followed by LPS stimulation for 24 hrs by electrochemiluminescence assay. More on the design: scale not given: the % may be the effect or the level left.

Series [20] shares this target. As to the kind of experiment: Agonist activity at ALX/FPR2 in human THP1 cells harboring NF-kB-Luc assessed as inhibition of LPS-induced NFkB signalling activation by measuring TNFalpha secretion at 10^-7 M pretreated for 30 mins followed by LPS stimulation for 24 hrs by electrochemiluminescence assay. More on the design: scale not given: the % may be the effect or the level left.

Take `CCCCC[C@H](O)/C=C/C=C\C=C\C=C\[C@@H](O)[C@@H](O)CCCC(=O)O` [LIPOXIN A4]: the Activity in series [1] came out at 95.5%; in series [3] it was 37.1%; in [4], 29.6%; in [7], 83.3%; in series [8], 36.1%; in series [9], 25.7%. In addition, the Activity in [12] was determined as 95.3%; in series [13], 2.6%; in series [15], 84.2%; in [16], 32%; in series [17], 93.3%; in the series filed under Homo sapiens, 1.5%. Also, the Activity came out at 4.3% in series [18], 19.6% in series [19] and 29.5% in series [20]. For the same compound, the IC50 in series [2] turned out to be 22.2 nM; in [6] it was 7.7 nM; in [10] it was 26.3 nM; in series [11], 1.8 nM; in series [14], 1.7 nM. Also, the viability in series [5] lay in the range of 95 to 100%.
Take `CCCCC[C@H](O)c1nc(-c2ccccc2)n(-c2ccccc2)c1/C=C/[C@@H](O)[C@@H](O)CCCC(=O)OC`: the Activity in [1] amounted to 83.4%; in [3], 61.4%; in series [4], 138%; in series [7], 80.4%; in series [8], 68.4%; in series [9] it was 65.1%. The Activity amounted to 88.2% in [12]; 69% in series [13]; 80.3% in series [15]; 129% in series [16]; 90.2% in series [17]; 1.6% in the series listed under Homo sapiens. Further, the figures for the Activity in [18], in series [19] and in [20] were 57.8%, 69.3% and 86.8%, respectively. The IC50 in [2] was 0.7 nM; in series [6], 4.1 nM; in series [10], 32.4 nM; in series [11] it was 1 nM; in series [14] it was 12 nM. The viability in series [5] lay within 95 to 100%.
`CCCCC[C@@H](O)c1nc(-c2ccccc2)n(-c2ccccc2)c1/C=C/[C@@H](O)[C@@H](O)CCCC(=O)OC`: the Activity in series [1] came out at 94.3%; in series [3], 68.3%; in series [4], 86.2%; in series [7], 84.4%; in series [8] it was 71.4%; in [9], 67.7%. Further, the Activity in series [12] came out at 99.5%; in series [13] it was 58.7%; in [15], 85.2%; in [16], 95%; in [17], 88.5%; in the series filed under Homo sapiens, 1.5%. Besides, the Activity was determined as 50.3% in [18], 61.5% in series [19] and 78.1% in series [20]. Besides, the IC50 in series [2] is 18.5 nM; in series [6], 7.1 nM; in [10], 26.2 nM; in series [11] it was 1.4 nM; in [14], 0.5 nM. Further, the viability in [5] lay within 95 to 100%.

These data come from ChEMBL document CHEMBL4382216, “Asymmetric synthesis and biological evaluation of imidazole- and oxazole-containing synthetic lipoxin A4 mimetics (sLXms)” (Eur J Med Chem, 2019).
